{"source": "paper PMC10874388", "about": "“Cyclic peptides discriminate BCL-2 and its clinical mutants from BCL-XL by engaging a single-residue discrepancy” (Nature Communications, 2024)", "tested_on": "RS4:11 cells", "assay": "Cell viability assay (CellTiter-Glo), RS4:11", "assay_type": "cell-based", "conditions": "for raw luminescence reading / inhibition rate: RS4:11, single wells", "procedure,_shortened": "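Compounds added in serum-free medium for 4 h (RS4:11: 6 h), then FBS brought to 10% and incubation continued to 24 h or 48 h total at 37 °C, 5% CO2. Viability by CellTiter-Glo 2.0 luminescence; IC50 calculated.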", "note": "Values joined by “and” are separate entries in the source; they are usually repeats but may differ in a detail not shown here. Equal values may be shown once."}
{"smiles": "O=C(c1cc(-c2cc3c(cc2C(=O)N2Cc4ccccc4C[C@H]2CN2CCOCC2)OCO3)n2c1CCCC2)N(c1ccccc1)c1ccc(O)cc1", "note": "[S55746]", "values": [{"measurement": "IC50", "setting": "48 h treatment, CellTiter-Glo, small-molecule inhibitors, cells marked (nM)", "result": "4.5 ± 0.1", "unit": "nM"}, {"measurement": "raw luminescence reading", "setting": "2.44141 nM", "result": "232300 and 260200 and 275600 and 316000 and 308700 and 306800"}, {"measurement": "raw luminescence reading", "setting": "4.88281 nM", "result": "135300 and 123100 and 129200 and 110700 and 132100 and 115900"}, {"measurement": "inhibition rate", "setting": "4.88281 nM, 0.00488281 µM", "result": "53% and 57% and 55% and 61% and 54% and 59%"}, {"measurement": "raw luminescence reading", "setting": "9.76562 nM", "result": "75370 and 71000 and 72070 and 63170 and 68200 and 61260"}, {"measurement": "inhibition rate", "setting": "9.76562 nM, 0.00976562 µM", "result": "74% and 75% and 78% and 76% and 79%"}, {"measurement": "raw luminescence reading", "setting": "19.5312 nM", "result": "38320 and 36520 and 36660 and 31950 and 34870 and 31060"}, {"measurement": "inhibition rate", "setting": "19.5312 nM, 0.0195312 µM", "result": "87% and 89% and 88%"}, {"measurement": "raw luminescence reading", "setting": "39.0625 nM", "result": "14610 and 13790 and 14580 and 12190 and 12650 and 12610"}, {"measurement": "inhibition rate", "setting": "39.0625 nM, 0.0390625 µM", "result": "95% and 96%"}, {"measurement": "raw luminescence reading", "setting": "78.125 nM", "result": "4289 and 3678 and 4541 and 3543 and 3931 and 3419"}, {"measurement": "inhibition rate", "setting": "78.125 nM, 0.078125 µM", "result": "98% and 99%"}, {"measurement": "raw luminescence reading", "setting": "156.25 nM", "result": "1268 and 1101 and 1335 and 1644 and 1000 and 916.1"}, {"measurement": "inhibition rate", "setting": "156.25 nM, 0.15625 µM", "result": "100% and 99%"}, {"measurement": "inhibition rate", "setting": "312.5 nM", "result": 100, "unit": "%"}, {"measurement": "raw luminescence reading", "setting": "312.5 nM", "result": "809.8 and 810.5 and 948.9 and 960.0 and 1116 and 1097"}, {"measurement": "inhibition rate", "setting": "625 nM", "result": 99, "unit": "%"}, {"measurement": "raw luminescence reading", "setting": "625 nM", "result": "1448 and 1571 and 1720 and 1855 and 1831 and 2149"}, {"measurement": "inhibition rate", "setting": "1250 nM", "result": 100, "unit": "%"}, {"measurement": "raw luminescence reading", "setting": "1250 nM", "result": "256.4 and 322.1 and 360.1 and 295.0 and 378.2 and 348.9"}, {"measurement": "inhibition rate", "setting": "2500 nM", "result": 100, "unit": "%"}, {"measurement": "raw luminescence reading", "setting": "2500 nM", "result": "334.6 and 379.8 and 329.3 and 445.4 and 358.3 and 346.2"}, {"measurement": "inhibition rate", "setting": "5000 nM", "result": 100, "unit": "%"}, {"measurement": "inhibition rate", "setting": "10000 nM", "result": 100, "unit": "%"}, {"measurement": "raw luminescence reading", "setting": "10000 nM", "result": "297.6 and 210.5 and 312.1 and 264.1 and 325.8 and 327.8"}]}
